{"source": "patent US20130052204A1", "about": "“(POLY)-GLYCEROLPHOSPHATE-BASED ANTI-GRAM POSITIVE BACTERIAL VACCINE” (priority 2009, published 2013)", "format_in_all_cases": "binding", "key": {"[1]": {"test_system": "Pagibaximab (anti-LTA)", "experiment": "ELISA: biotinylated LTA or PGP added to Pagibaximab-coated plates", "conditions": "for O.D. readings: Pagibaximab-coated wells", "protocol": "(§1) ELISA plates (96-well) were coated overnight with […] of Pagibaximab (anti-LTA), Zantibody (anti-peptidoglycan), or Synagis (anti-RSV), all of which are chimeric IgG1 antibodies. PGP was prepared as described above in Example 1, and LTA was extracted from S. aureus. The plates were then developed with horseradish peroxidase for 30 minutes."}, "[2]": {"test_system": "Zantibody (anti-peptidoglycan)", "experiment": "ELISA: biotinylated LTA or PGP added to Zantibody-coated plates", "conditions": "anti-peptidoglycan-coated wells", "protocol": "as §1"}, "[3]": {"test_system": "Synagis (anti-RSV)", "experiment": "ELISA: biotinylated LTA or PGP added to Synagis-coated plates", "conditions": "Synagis-coated wells", "protocol": "as §1"}, "[4]": {"conditions": "biotinylated LTA or PGP at 0.004 μg/ml"}, "[5]": {"conditions": "biotinylated LTA or PGP at 0.012 μg/ml"}, "[6]": {"conditions": "biotinylated LTA or PGP at 0.037 μg/ml"}, "[7]": {"conditions": "biotinylated LTA or PGP at 0.1 μg/ml"}, "[8]": {"conditions": "biotinylated LTA or PGP at 0.33 μg/ml"}, "[9]": {"conditions": "biotinylated LTA or PGP at 1 μg/ml"}, "[10]": {"conditions": "biotinylated LTA or PGP at 3 μg/ml"}}, "note": "“Also recorded” adds a separate entry of the source."}
{"substance": "poly-glycerolphosphate [PGP]", "values": [{"measurement": "O.D. readings", "setting": "[1]; [4]", "result": 0.34}, {"measurement": "O.D. readings", "setting": "[1]; [5]", "result": 0.51}, {"measurement": "O.D. readings", "setting": "[1]; [6]", "result": 0.67}, {"measurement": "O.D. readings", "setting": "[1]; [7]", "result": 0.89}, {"measurement": "O.D. readings", "setting": "[1]; [8]", "result": 1.09}, {"measurement": "O.D. readings", "setting": "[1]; [9]", "result": 1.42}, {"measurement": "O.D. readings", "setting": "[1]; biotinylated LTA or PGP at 3 μg/ml, one hour", "result": 1.91}, {"measurement": "recognition / binding by Pagibaximab (in words)", "setting": "[1]; compared with LTA from S. aureus", "result": "recognized; also recorded: binds equally well"}, {"measurement": "O.D. readings", "setting": "[2]; [4]", "result": "<0.02"}, {"measurement": "O.D. readings", "setting": "[2]; [5]", "result": "<0.02"}, {"measurement": "O.D. readings", "setting": "[2]; [6]", "result": "<0.02"}, {"measurement": "O.D. readings", "setting": "[2]; [7]", "result": "<0.02"}, {"measurement": "O.D. readings", "setting": "[2]; [8]", "result": "<0.02"}, {"measurement": "O.D. readings", "setting": "[2]; [9]", "result": "<0.02"}, {"measurement": "O.D. readings", "setting": "[2]; [10]", "result": 0.03}, {"measurement": "O.D. readings", "setting": "[3]; [4]", "result": "<0.02"}, {"measurement": "O.D. readings", "setting": "[3]; [5]", "result": "<0.02"}, {"measurement": "O.D. readings", "setting": "[3]; [6]", "result": "<0.02"}, {"measurement": "O.D. readings", "setting": "[3]; [7]", "result": "<0.02"}, {"measurement": "O.D. readings", "setting": "[3]; [8]", "result": "<0.02"}, {"measurement": "O.D. readings", "setting": "[3]; [9]", "result": "<0.02"}, {"measurement": "O.D. readings", "setting": "[3]; [10]", "result": "<0.02"}]}
